Results: US11065235B2, “Substituted methanopyrido [2, 1-a] isoindolones as mAChR modulators for treating various associated pathophysiological conditions and process for preparation thereof” (COUNCIL OF SCIENTIFIC & INDUSTRIAL RESEARCH, priority 2017, dated 2021)
Read-outs that look alike come from different tables or passages of the source.

Key:
human M3R = biological target: T1, human M3R (Homo sapiens, UniProt P20309); assay: NFAT-luciferase assay, M3; assay type: cell-based; design: IC50 activity, M3 muscarinic receptor antagonist: unit not given beside the values; conditions: for selectivity among muscarinic receptors (in words): M1, M3 and M5 antagonist profiling; for effectiveness relative to known drug darifenacin at M3: compared with darifenacin 8.9 pKi
T1 construct: expressed in transfected cells; host or cells: HEK-293T
Experimental: (§1) To measure the agonist or antagonist activity at M1, M3 and M5 muscarinic receptor, NFAT-luciferase activity was performed in HEK-293T cells (procured from NCCS, Pune) by co-transfecting with human M1R or M3R or M5R and pGL4.30 (luc2P/NFAT-RE/Hygro; Promega Corp,) in 96 well format. The transfected cells were incubated at 37° C. in tissue culture incubator with 5% CO2 for 14-16 hours. To determine the if the test compounds are agonist, the transfected cells were treated with either 20 μl/well of carbamoyl choline (as a positive control) at various concentrations (10000 nM to 0.01 nM) or with various concentrations of test compounds (in triplicates) and were further incubated for 12 hrs in a humidified tissue culture incubator at 37° C. with 5% CO2. For antagonist mode assay, test compound incubation was followed by addition of 20 μl of 7 μM carbamoylcholine (agonist) to the plate. Following 12-14 hrs of drug treatment, media from the plate was aspirated and 100 μl of sodium luciferin solution (10 mg/ml) was added and luminescence per well was recorded using luminescence plate reader (BMG Labtech).

human M1R = biological target: T2, human M1R (Homo sapiens, UniProt P11229); assay: NFAT-luciferase assay, M1; assay type: cell-based; conditions: antagonist
T2 construct: expressed in transfected cells; host or cells: HEK-293T
T2 sequence (P11229 1-460): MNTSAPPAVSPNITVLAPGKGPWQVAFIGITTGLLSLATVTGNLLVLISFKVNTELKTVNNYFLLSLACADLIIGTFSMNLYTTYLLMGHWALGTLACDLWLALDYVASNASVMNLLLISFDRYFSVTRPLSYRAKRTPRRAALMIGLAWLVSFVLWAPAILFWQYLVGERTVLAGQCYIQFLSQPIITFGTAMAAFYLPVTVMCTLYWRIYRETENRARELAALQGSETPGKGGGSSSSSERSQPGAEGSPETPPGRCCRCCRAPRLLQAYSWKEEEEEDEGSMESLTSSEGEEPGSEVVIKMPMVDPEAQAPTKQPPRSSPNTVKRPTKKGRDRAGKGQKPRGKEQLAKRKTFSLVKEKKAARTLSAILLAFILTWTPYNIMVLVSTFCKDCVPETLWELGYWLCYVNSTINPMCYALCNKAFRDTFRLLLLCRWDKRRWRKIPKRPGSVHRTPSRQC
Experimental: as §1

[1] = test system: Scopolamine induced memory deficit; assay: Novel object recognition (NOR) test, scopolamine induced memory deficit; assay type: in vivo, mice; conditions: scopolamine alone 0.5 mg/kg i.p., vs vehicle, p<0.05
Excerpt: (§2) All animal experiments and procedures were executed in accordance with the guidelines established in the guide for the care and use of laboratory animals and were approved by the institutional animal ethics committee (IAEC) of CSIR-Central Drug Research Institute, Lucknow, India. In this study, male C57BL/6J mice (6-8 weeks old) weighing 22-25 g were used. They were housed on a 12-h light/dark cycle (lights on at 8.00 am) and food and water were provided ad libitum. Animals were acclimatized to the experimental room 30 minutes prior to the beginning of behavioral procedures. For experimental purpose, animals were randomly divided into four groups: vehicle, RG-02, scopolamine and scopolamine along with RG-02. In scopolamine along with RG-02 group, RG-02 (10 mg/kg, i.p) was injected thirty minutes prior to the scopolamine (0.5 mg/kg, i.p.) injections.
The NOR test was performed according to the protocol introduced by Ennaceur and Delacour (Ennaceur & Delacour, 1988) with slight modification.
The NOR task procedure consisted of three sessions—[…], familiarization and test session. During habituation session, the mouse was placed in an open field (Square box of 40×40×40 cm), facing the wall of the arena, and allowed to explore the entire arena for 10 minutes. Following habituation period of 10 minutes, the mouse was returned to its home cage.
Between every […] session, the whole arena was cleaned with 10% ethanol to reduce olfactory cues. […] During this session, the test animal was placed in the arena and was allowed to explore the entire arena with familiar and novel object, and its activity was also video recorded. To determine the retention of object memory, the recorded videos of test session were analyzed by independent observer who was unknown to treatment of mice to calculate the time spent in exploring both objects. Data are presented as % time of exploration of familiar or novel object, and discrimination index was calculated as per following equation: (Tn−Tf)/Tt: Discrimination Index […]

[2] = test system: Scopolamine induced memory deficit; assay: Morris water maze (MWM) test, scopolamine induced learning deficit; assay type: in vivo, mice; conditions: scopolamine alone 0.5 mg/kg i.p.
Excerpt: as §2
The Morris water maze (MWM) test was performed according to Morris 1984, with slight modifications. Circular pool of dimensions-100 cm diameter and 45 cm depth, which was filled up to 25 cm from bottom with white colour water. Temperature of water was adjusted to 24-25° C. Pool was divided into four quadrants and a square platform of 10×10 cm in was placed into the tank at a fixed location in the centre of one of the four imaginary quadrants. Training sessions were conducted for 3 consecutive days and on 4th day a probe trial was performed. During training session, mouse was gently placed into the water facing the edge of the pool of one of the quadrant. If the mouse was able to find the platform before the 60 sec cut-off, it was allowed to stay over the platform for 5 more seconds followed by returning to its home cage. […] Total three trials/day were run for each mouse with minimum interval of 10-15 minutes between two trials, and latency to reach the platform was calculated. On the fourth day, for the probe trial, the platform was removed and the time spent in respective quadrant was calculated.

human M2R = biological target: T3, human M2R (Homo sapiens, UniProt P08172); assay: GloSensor cAMP assay (Gi-mediated cAMP inhibition); assay type: cell-based; conditions: M2, agonist, N.A. = not active; for IC50: read-out: pIC50/pEC50 (Mean ± SEM) M2 (converted)
T3 construct: expressed in transfected cells; host or cells: HEK-293T
T3 sequence (P08172 1-466): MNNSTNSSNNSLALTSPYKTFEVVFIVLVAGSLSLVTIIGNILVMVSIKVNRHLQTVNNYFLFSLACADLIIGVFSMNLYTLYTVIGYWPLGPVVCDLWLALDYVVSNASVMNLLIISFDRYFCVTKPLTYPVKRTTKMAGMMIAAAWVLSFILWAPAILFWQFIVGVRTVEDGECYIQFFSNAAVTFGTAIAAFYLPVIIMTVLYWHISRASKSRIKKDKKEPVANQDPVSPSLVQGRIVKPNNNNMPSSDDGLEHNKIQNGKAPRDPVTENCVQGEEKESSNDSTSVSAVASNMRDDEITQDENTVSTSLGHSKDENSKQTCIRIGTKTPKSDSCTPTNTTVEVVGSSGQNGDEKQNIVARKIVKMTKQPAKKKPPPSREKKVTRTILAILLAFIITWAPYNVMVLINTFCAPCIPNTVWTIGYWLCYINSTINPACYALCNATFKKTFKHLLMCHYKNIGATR
Experimental: To measure M2 muscarinic receptor induced (Gi-mediated) cAMP inhibition, HEK-293T cells (procured from NCCS, Pune) were co-transfected with human M2R and luciferase based cAMP biosensor (pGloSensor™-22F plasmid; Promega) using PEImax method of transfection in the ratio of 1:1. The transfected cells were incubated at 37° C. in tissue culture incubator with 5% CO2 for 14-16 hours. For GloSensor cAMP assay, after overnight incubation, media from the plate was aspirated and 100 μl of sodium luciferin solution in drug buffer (1×HBSS (pH7.4) and 20 mM HEPES) was added to the cell plates. The plates were then incubated at 37° C. in tissue culture incubator with 5% CO2 for 90 minutes. After incubation, cells were treated with 20 μl of 6× diluted standard carbamoyl choline (10000 nM to 0.01 nM) along with test compounds (in triplicates) and were incubated in a humidified tissue culture incubator at 37° C. with 5% CO2 for 10-15 minutes to get a steady state condition. Ligand incubation was followed by addition of 20 μl of 7×(70 μM) forskoline (FSK) to the plate. FSK incubation was followed by incubation at 37° C. for 10-15 minutes and measurement of luminescence per well using luminescence plate reader (BMG Labtech). The results were plotted as inhibition of FSK stimulated cAMP response (relative luminescence units) using nonlinear regression analysis by Graph-Pad prism V.

[3] = M3, antagonist, N.A. = not active, read-out: pIC50/pEC50 (Mean ± SEM) M3 (converted)

T1 sequence (P20309 whole entry): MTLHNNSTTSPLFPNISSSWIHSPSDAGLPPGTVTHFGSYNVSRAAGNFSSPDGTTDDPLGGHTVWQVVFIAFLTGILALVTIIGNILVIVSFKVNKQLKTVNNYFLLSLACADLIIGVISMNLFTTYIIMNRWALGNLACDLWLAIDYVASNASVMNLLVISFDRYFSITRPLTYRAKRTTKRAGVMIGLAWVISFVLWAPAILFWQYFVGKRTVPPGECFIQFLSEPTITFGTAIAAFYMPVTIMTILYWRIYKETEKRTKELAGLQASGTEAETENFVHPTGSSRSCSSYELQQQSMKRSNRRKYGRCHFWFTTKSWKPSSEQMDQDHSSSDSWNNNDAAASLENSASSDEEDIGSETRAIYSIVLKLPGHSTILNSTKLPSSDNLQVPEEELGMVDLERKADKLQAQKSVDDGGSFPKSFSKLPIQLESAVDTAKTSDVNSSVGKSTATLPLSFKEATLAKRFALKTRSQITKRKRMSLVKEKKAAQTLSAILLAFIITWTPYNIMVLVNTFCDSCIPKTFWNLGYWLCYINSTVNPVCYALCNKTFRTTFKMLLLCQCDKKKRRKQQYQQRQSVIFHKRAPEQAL

Cc1ccc(S(=O)(=O)[C@]23CC4=C(OS(=O)(=O)C(F)(F)F)CCC[C@H]4N4[C@H](C2=O)c2ccccc2[C@@H]43)cc1 [RG-13, (6S,6aR,11S,12aR)-13-oxo-6-tosyl-1,2,3,5,6,6a,11,12a-octahydro-6,11-methanoisoindolo[2,1-a]quinolin-4-yl trifluoromethanesulfonate]
antagonist activity at M3 receptor (in words) (human M3R): high affinity antagonist of M3 receptor
selectivity among muscarinic receptors (in words) (human M3R): nonselective muscarinic receptor antagonist
IC50 (human M3R; [3]): 0.107 nM
IC50 (human M1R; M1, N.A. = not active, read-out: pIC50/pEC50 (Mean ± SEM) M1 (converted)): 871 nM
IC50 (human M1R; read-out: IC50 at M1 receptor): ≤ 1000 nM

CN1[C@@H]2C[C@@H](OC(=O)[C@H](CO)c3ccccc3)C[C@H]1[C@@H]1O[C@@H]12 [scopolamine, reference compound]
exploration time for the novel object [1]: marked reduction in the exploration time for the novel object
latency to reach the platform ([2]; Day-3): increased latency to reach the platform
time in quadrant with platform (probe trial) ([2]; vs vehicle or RG-02): spent lesser time in quadrant with platform

Cc1ccc(S(=O)(=O)[C@]23C[C@H]4C(=O)CC[C@H]4N4[C@H](C2=O)c2ccccc2[C@@H]43)cc1 [RG-09, (3aR,5S,5aR,10S,11aR)-5-tosyl-3a,4,5,5a,10,11a-hexahydro-1H-5,10-methanocyclopenta[5,6]pyrido[2,1-a]isoindole-3,12(2H)-dione]
antagonist activity at M3 receptor (in words) (human M3R): high affinity antagonist of M3 receptor
selectivity among muscarinic receptors (in words) (human M3R): selective M3 muscarinic receptor antagonist
IC50 (human M3R; as worded in closing text, read-out: IC50 activity, M3 muscarinic receptor antagonist (converted)): 0.102 nM
effectiveness relative to known drug darifenacin at M3 (human M3R): tenfold more effective

Cc1ccc(S(=O)(=O)[C@]23C[C@@H]4C(=O)CCC[C@H]4N4[C@H](C2=O)c2ccccc2[C@@H]43)cc1 [RG-06, (4aS,6S,6aR,11S,12aR)-6-tosyl-1,2,3,4a,5,6,6a,12a-octahydro-6,11-methanoisoindolo[2,1-a]quinoline-4,13(11H)-dione]
antagonist activity at M3 receptor (in words) (human M3R): high affinity antagonist of M3 receptor
selectivity among muscarinic receptors (in words) (human M3R): selective M3 muscarinic receptor antagonist
IC50 (human M3R; [3]): 0.129 nM
IC50 activity, M3 muscarinic receptor antagonist (human M3R; as worded in closing text): 9.89
effectiveness relative to known drug darifenacin at M3 (human M3R): tenfold more effective

O=C1CCC[C@@H]2[C@@H]1C[C@@]1(S(=O)(=O)c3ccccc3)C(=O)[C@@H]3c4ccccc4[C@H]1N32 [(−)-RG-02, (−)-(4aS,6S,6aR,11S,12aR)-6-(phenylsulfonyl)-1,2,3,4a,5,6,6a,12a-octahydro-6,11-methanoisoindolo[2,1-a]quinoline-4,13(11H)-dione]
pIC50/pEC50 (Mean ± SEM) M2 (human M2R): 8.38 ± 0.35 (agonist)

COC(=O)[C@@H]1c2ccccc2[C@@H]2[C@H](S(=O)(=O)c3ccccc3)C[C@@H]3C(=O)CCC[C@H]3N12 [RG-04, (4aS,6R,6aR,11S,12aR)-methyl 4-oxo-6-(phenylsulfonyl)-1,2,3,4,4a,5,6,6a,11,12a-decahydroisoindolo[2,1-a]quinoline-11-carboxylate]
IC50 (human M2R): 566 nM

CCOC(=O)[C@@H]1c2ccccc2[C@@H]2[C@H](S(=O)(=O)c3ccccc3)C[C@@H]3C(=O)CCC[C@H]3N12 [RG-05, (4aS,6R,6aR,11S,12aR)-ethyl 4-oxo-6-(phenylsulfonyl)-1,2,3,4,4a,5,6,6a,11,12a-decahydroisoindolo[2,1-a]quinoline-11-carboxylate]
IC50 (human M2R): 2160 nM
